From patent US20240287042A1, “NOVEL COMPOUND HAVING INHIBITORY ACTIVITY AGAINST PENDRIN, AND PHARMACEUTICAL USES THEREOF” (UIF (University Industry Foundation), Yonsei University, priority 2021, published 2024)

Molecular target: T1, human wild-type (WT)-pendrin (Homo sapiens, UniProt O43511)
T1 construct: expressed in transfected cells
T1 sequence (O43511 1-780): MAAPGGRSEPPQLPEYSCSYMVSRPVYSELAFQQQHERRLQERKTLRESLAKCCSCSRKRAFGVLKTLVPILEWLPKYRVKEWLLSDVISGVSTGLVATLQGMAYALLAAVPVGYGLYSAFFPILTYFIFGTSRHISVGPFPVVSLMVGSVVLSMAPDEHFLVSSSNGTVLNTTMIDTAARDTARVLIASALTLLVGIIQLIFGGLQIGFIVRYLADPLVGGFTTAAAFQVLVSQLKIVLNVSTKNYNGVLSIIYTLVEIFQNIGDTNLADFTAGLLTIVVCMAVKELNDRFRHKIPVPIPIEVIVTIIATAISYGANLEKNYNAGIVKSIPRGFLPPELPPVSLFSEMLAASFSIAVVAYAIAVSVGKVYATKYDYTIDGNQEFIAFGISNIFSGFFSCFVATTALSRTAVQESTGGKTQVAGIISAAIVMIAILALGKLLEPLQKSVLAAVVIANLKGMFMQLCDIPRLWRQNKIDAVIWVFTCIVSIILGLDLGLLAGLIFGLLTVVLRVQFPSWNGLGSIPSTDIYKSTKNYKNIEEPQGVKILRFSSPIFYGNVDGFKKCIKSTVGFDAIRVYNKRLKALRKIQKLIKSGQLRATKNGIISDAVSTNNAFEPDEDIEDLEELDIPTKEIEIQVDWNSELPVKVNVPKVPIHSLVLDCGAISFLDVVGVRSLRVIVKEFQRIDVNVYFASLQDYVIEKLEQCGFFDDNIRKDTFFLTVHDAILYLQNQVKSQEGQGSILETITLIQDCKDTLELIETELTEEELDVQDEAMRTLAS
Assay: Pendrin Cl−/I− exchange inhibitory activity, YFP fluorescence in CHO-K1 cells
Assay type: cell-based
Conditions: CHO-K1; for inhibition at 1 µM: compound concentration 1 μM; for inhibition at 3 µM: compound concentration 3 μM; for inhibition at 10 µM: compound concentration 10 μM; for inhibition at 30 µM: compound concentration 30 μM; for inhibition at 100 µM: compound concentration 100 μM
Procedure: Chinese hamster ovary (CHO)-K1 cells were cultured in DMEM medium containing 10% fetal bovine serum (FBS), 100 units/ml of penicillin and 100 μg/ml streptomycin. CHO-K1 cells were stably transfected with pcDNA3.1 encoding the halide sensor YFP-H148Q/I152L/F46L and human wild-type (WT)-pendrin.
(§1) CHO-K1 cells expressing human WT pendrin and YFP-F46L/H148Q/I152L were plated in 96-well microplates at a density of 2×10^4 cells per well, and cultured for 48 hours. Each well of the cell cultured 96-well plate was washed 2 times with 200 μL of PBS, and filled with 50 μL of HEPES buffered solution (140 mM NaCl, 5 mM KCl, 1 mM MgCl2, 1 mM CaCl2), 10 mM glucose and 10 mM HEPES (pH 7.4)). Test compounds (1 μL) were added to a final concentration of 1, 3, 10, 30 and 100 μM. After culturing at 37° C. for 10 minutes, the 96-well plate was located on the FLUOstar Omega Microplate Reader (BMG Labtech, Ortenberg, Germany) for a fluorescence assay. Fluorescence was recorded continuously (400 ms per point) for 1 second (baseline), whereby each well was assayed individually for pendrin-mediated I-influx. Then 50 μL of Na-substituted HEPES buffered solution (replacing NaCl with NaI) was added using a liquid injector at 1 second, and YFP fluorescence was recorded for 5 seconds. The initial iodide influx rate was determined from the initial slope of fluorescence by nonlinear regression, after the injection of iodide.
as §1, with “Chinese hamster ovary (CHO)-K1 cells were cultured in DMEM medium containing 10% fetal bovine serum (FBS), 100 units/ml of penicillin and 100 μg/ml streptomycin. CHO-K1 cells were stably transfected with pcDNA3.1 encoding the halide sensor YFP-H148Q/I152L/F46L and human wild-type (WT)-pendrin. 3-2: Assay of Cl^−/I^− exchange activity CHO-K1” for “CHO-K1”, “50” for “1, 3, 10, 30 and 100”, “Then,” for “Then”, “NaI-substituted” for “Na-substituted”

Row | inhibition at 1 µM | inhibition at 3 µM | inhibition at 10 µM | inhibition at 30 µM | inhibition at 100 µM | Compound
1 | < 20% | < 20% | 45.4% | 76.2% | 77.3% | Cc1ccc2[nH]c(C(=O)O)c(CC(=O)N3CCN(c4ccc(C(C)(C)C)cc4)CC3)c2c1 [YPI-A4944, 3-(2-(4-(4-(Tert-butyl)phenyl)piperazin-1-yl)-2-oxoethyl)-5-methyl-1H-indole-2-carboxylic acid]
2 | < 20% | < 20% | < 20% | 38.5% | 38.6% | Cc1cc(C)c2[nH]c(C(=O)O)c(CC(=O)N3CCN(c4ccc(C(C)(C)C)cc4)CC3)c2c1 [YPI-A4945]
3 | 22.4% | 56.9% | 82.3% | 94.5% | 95.6% | Cc1ccc2[nH]c(C(=O)O)c(CC(=O)N3CCN(c4c(C)cccc4C)CC3)c2c1 [YPI-A4946, 3-(2-(4-(2,6-Dimethylphenyl)piperazin-1-yl)-2-oxoethyl)-5-methyl-1H-indole-2-carboxylic acid]
4 | < 20% | < 20% | 40.8% | 41.3% | 41.9% | Cc1cc(C)c2[nH]c(C(=O)O)c(CC(=O)N3CCN(c4c(C)cccc4C)CC3)c2c1 [YPI-A4947, 3-(2-(4-(2,6-dimethylphenyl)piperazin-1-yl)-2-oxoethyl)-5,7-dimethyl-1H-indole-2-carboxylic acid]
5 | < 20% | 39.5% | 78.9% | 79.3% | 79.6% | Cc1cc(C)c2[nH]c(C(=O)O)c(CC(=O)N3CCN(c4c(C)cccc4Cl)CC3)c2c1 [YPI-A4949, 3-(2-(4-(2-Chloro-6-methylphenyl)piperazin-1-yl)-2-oxoethyl)-5,7-dimethyl-1H-indole-2-carboxylic acid]
6 | < 20% | 52.3% | 89.6% | 100% | – | Cc1cccc(Cl)c1N1CCN(C(=O)Cc2c(C(=O)O)[nH]c3ccc(F)cc23)CC1 [YPI-A4963, 3-(2-(4-(2-Chloro-6-methylphenyl)piperazin-1-yl)-2-oxoethyl)-5-fluoro-1H-indole-2-carboxylic acid]
7 | < 20% | < 20% | 51.4% | 88.9% | – | Cc1cccc(C)c1N1CCN(C(=O)Cc2c(C(=O)O)[nH]c3ccc(F)cc23)CC1 [YPI-A4964, 3-(2-(4-(2,6-Dimethylphenyl)piperazin-1-yl)-2-oxoethyl)-5-fluoro-1H-indole-2-carboxylic acid]
8 | < 20% | < 20% | < 20% | 62.7% | – | CC(C)(C)c1ccc(N2CCN(C(=O)Cc3c(C(=O)O)[nH]c4ccc(F)cc34)CC2)cc1 [YPI-A4965, 3-(2-(4-(4-(Tert-butyl)phenyl)piperazin-1-yl)-2-oxoethyl)-5-fluoro-1H-indole-2-carboxylic acid]
9 | < 20% | < 20% | < 20% | < 20% | < 20% | O=C(O)c1[nH]c2ccc(Cl)cc2c1CC(=O)N1CCN(c2ccc(-c3ccccc3)cc2)CC1 [YPI-A4966, 3-(2-(4-([1,1′-biphenyl]-4-yl)piperazin-1-yl)-2-oxoethyl)-5-chloro-1H-indole-2-carboxylic acid]
